Structures can show the parent of a compound that is named as a salt. Where two headings read alike, the source gives them in different places.
Assays:
serotonin re-uptake = molecular target: T1, serotonin re-uptake (Rattus norvegicus, UniProt P31652); test: Serotonin re-uptake inhibitory activity (synaptosome, [3H]5-HT); format: biochemical
T1 construct: synaptosome prepared from rat whole brains except the cerebellums; from tissue; host or cells: synaptosomes from rat whole brain except the cerebellum
T1 sequence (P31652 whole entry): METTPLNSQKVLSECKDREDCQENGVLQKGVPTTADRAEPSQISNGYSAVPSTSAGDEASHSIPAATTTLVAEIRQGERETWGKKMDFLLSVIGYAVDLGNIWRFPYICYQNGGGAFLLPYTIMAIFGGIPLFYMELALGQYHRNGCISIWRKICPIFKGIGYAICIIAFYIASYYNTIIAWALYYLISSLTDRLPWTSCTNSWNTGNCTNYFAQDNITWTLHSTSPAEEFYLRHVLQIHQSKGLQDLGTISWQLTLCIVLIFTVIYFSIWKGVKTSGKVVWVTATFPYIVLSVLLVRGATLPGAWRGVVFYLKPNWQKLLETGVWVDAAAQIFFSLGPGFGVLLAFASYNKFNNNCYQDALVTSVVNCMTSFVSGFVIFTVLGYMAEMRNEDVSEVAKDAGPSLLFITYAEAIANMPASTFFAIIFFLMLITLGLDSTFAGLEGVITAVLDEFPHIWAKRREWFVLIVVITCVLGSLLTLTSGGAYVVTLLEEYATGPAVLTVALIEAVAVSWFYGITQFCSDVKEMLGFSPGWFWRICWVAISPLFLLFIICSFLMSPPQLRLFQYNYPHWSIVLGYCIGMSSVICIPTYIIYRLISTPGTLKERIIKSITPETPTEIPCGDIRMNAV
Procedure: Serotonin re-uptake inhibitory activity was determined using synaptosome prepared from rat whole brains except the cerebellums. Briefly, 10 μl of DMSO solution-dissolved test substance (control group; DMSO solution alone) was added to 1 ml of synaptosome and incubated for 5 min at 37° C. (in the control, DMSO alone was added to the synaptosome and incubated at 4° C.). Furthermore, 10 μl of [^3H]5-HT solution (final concentration: 10 μM as a total concentration of 5-HT, 100 nM as [^3H]5-HT) was added and incubated for 5 min at 37° C. Then 4 ml of ice-cold saline was added to stop the response. The response solution was filtered, 4 ml of saline was added, and the solution was once again filtered. Furthermore, 5 ml of Pico-Fluor was added, then ^3H levels on filter papers were counted by a liquid scintillation counter. Concentrations of test compounds to inhibit serotonin re-uptake by 50% (IC50) were calculated.

acetylcholinesterase = molecular target: T2, acetylcholinesterase (Mus musculus, UniProt P21836); test: biochemical
T2 construct: phosphate buffer solution containing the brain homogenate; from tissue; host or cells: mouse whole brain homogenate
T2 sequence (P21836 32-614): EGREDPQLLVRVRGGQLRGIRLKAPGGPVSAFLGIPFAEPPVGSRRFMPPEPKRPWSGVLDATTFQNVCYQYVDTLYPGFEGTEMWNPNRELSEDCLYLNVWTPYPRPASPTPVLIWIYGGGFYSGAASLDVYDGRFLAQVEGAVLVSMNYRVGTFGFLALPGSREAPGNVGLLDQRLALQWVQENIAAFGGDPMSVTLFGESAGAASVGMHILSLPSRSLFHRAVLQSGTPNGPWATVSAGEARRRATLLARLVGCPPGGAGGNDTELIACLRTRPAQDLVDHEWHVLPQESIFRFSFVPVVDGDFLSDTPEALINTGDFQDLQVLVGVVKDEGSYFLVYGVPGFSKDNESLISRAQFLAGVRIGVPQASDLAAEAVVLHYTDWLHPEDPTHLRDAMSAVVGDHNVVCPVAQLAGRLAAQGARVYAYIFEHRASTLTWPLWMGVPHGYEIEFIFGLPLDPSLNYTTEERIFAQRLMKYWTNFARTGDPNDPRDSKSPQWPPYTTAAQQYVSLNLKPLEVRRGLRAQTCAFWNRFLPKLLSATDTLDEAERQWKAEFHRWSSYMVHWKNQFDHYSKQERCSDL

[1] = synaptosome from rat whole brain except cerebellum, [3H]5-HT, 37° C., read-out: IC50 (nM) Serotonin re-uptake inhibitory activity
[2] = mouse whole brain homogenate, acetylthiocholine/DTNB, absorbance 412 nm, read-out: IC50 (nM) Acetylcholinesterase inhibitory activity

| Compound | IC50 (serotonin re-uptake; [1]) [nM] | IC50 (acetylcholinesterase) [nM] | IC50 (acetylcholinesterase; [2]) [nM] | IC50 (serotonin re-uptake) [nM] |
| --- | --- | --- | --- | --- |
| CN(C)C(=O)Oc1ccc([C@@H](CCOc2ccc([N+](=O)[O-])cc2Cl)N(C)C)cc1 [Test Compound 130, (R)-4-[3-(2-Chloro-4-nitrophenoxy)-1-dimethylaminopropyl]phenyl dimethylcarbamate hydrochloride] | 88 | 42 |  |  |
| Cc1cc(OCCC2c3ccc(OC(=O)N(C)C)cc3CCN2C)ccc1Cl (stereo not drawn) [Test Compound 188, 2-Methyl-1-[2-(4-chloro-3-methylphenoxy)-ethyl]-1,2,3,4-tetrahydroisoquinolin-6-yl dimethylcarbamate hydrochloride] | 150 | 53 |  |  |
| CN[C@@H](CCOc1ccc(Cl)cc1)c1ccc(OC(=O)N(C)C)cc1 [Test Compound 82, (S)-4-[3-(4-Chlorophenoxy)-1-methylaminopropyl]phenyl dimethylcarbamate hydrochloride] | 377 | 83 |  |  |
| CN[C@@H](CCOc1ccc(F)c(F)c1)c1ccc(OC(=O)N(C)C)cc1 [Test Compound 162, (S)-4-[3-(3,4-Difluorophenoxy)-1-methylaminopropyl]phenyl dimethylcarbamate hydrochloride] | 594 | 790 |  |  |
| CN(C)C(=O)Oc1ccc([C@H](CCOc2ccc([N+](=O)[O-])cc2Cl)N(C)C)cc1 [Test Compound 129, (S)-4-[3-(2-Chloro-4-nitrophenoxy)-1-dimethylaminopropyl]phenyl dimethylcarbamate hydrochloride] | 650 | 64 |  |  |
| CN(C)C(=O)Oc1ccc(C(CCOc2ccc([N+](=O)[O-])cc2)N(C)C)cc1 (stereo not drawn) [Test Compound 89, 4-[1-Dimethylamino-3-(4-nitrophenoxy)propyl]phenyl dimethylcarbamate hydrochloride] | 319 | 87 |  |  |
| CN(C)C(=O)Oc1cccc([C@@H](CCOc2ccc([N+](=O)[O-])cc2)N(C)C)c1 [Test Compound 136, (R)-3-[3-(4-Nitrophenoxy)-1-dimethylaminopropyl]phenyl dimethylcarbamate hydrochloride] | 236 | 980 |  |  |
| CN(C)C(=O)Oc1ccc(C(CCOc2ccc(F)cc2)N(C)C)cc1 (stereo not drawn) [Test Compound 31, hydrochloride] | 323 |  | 440 |  |
| CN[C@H](CCOc1cccc(Cl)c1)c1ccc(OC(=O)N(C)C)cc1 [Test Compound 61, (R)-4-[3-(3-Chlorophenoxy)-1-methylaminopropyl]phenyl dimethylcarbamate hydrochloride] | 182 | 230 |  |  |
| CN(C)C(=O)Oc1ccc(C(CCOc2ccc(F)c(F)c2)N(C)C)cc1 (stereo not drawn) [Test Compound 76, 4-[3-(3,4-Difluorophenoxy)-1-dimethylaminopropyl]phenyl dimethylcarbamate hydrochloride] | 124 | 300 |  |  |
| 4-[3-(4-Methylthiophenoxy)-1-methylaminopropyl]phenyl dimethylcarbamate hydrochloride [Test Compound 174] | 85 |  |  |  |
| CN[C@@H](CCOc1ccc([N+](=O)[O-])cc1Cl)c1ccc(OC(=O)N(C)C)cc1 [Test Compound 127, (S)-4-[3-(2-Chloro-4-nitrophenoxy)-1-methylaminopropyl]phenyl dimethylcarbamate hydrochloride] | 856 | 40 |  |  |
| CN[C@@H](CCOc1ccc([N+](=O)[O-])cc1)c1ccc(OC(=O)N(C)C)c(C)c1 [Test Compound 183, (S)-4-[3-(4-Nitrophenoxy)-1-methylaminopropyl]-2-methylphenyl dimethylcarbamate hydrochloride] | 67 | 26 |  |  |
| CN[C@@H](CCOc1cccc(Cl)c1)c1ccc(OC(=O)N(C)C)cc1 [Test Compound 81, (S)-4-[3-(3-Chlorophenoxy)-1-methylaminopropyl]phenyl dimethylcarbamate hydrochloride] | 228 | 320 |  |  |
| CN[C@H](CCOc1ccc(Cl)cc1)c1ccc(OC(=O)N(C)C)cc1 [Test Compound 62, (R)-4-[3-(4-Chlorophenoxy)-1-methylaminopropyl]phenyl dimethylcarbamate hydrochloride] | 343 | 270 |  |  |
| 4-[3-(4-Methylthiophenoxy)-1-dimethylaminopropyl]phenyl dimethylcarbamate hydrochloride [Test Compound 175] | 380 |  |  |  |

| Compound | IC50 (serotonin re-uptake; [1]) [nM] | IC50 (acetylcholinesterase) [nM] | IC50 (acetylcholinesterase; [2]) [nM] | IC50 (serotonin re-uptake) [nM] |
| --- | --- | --- | --- | --- |
| CNC(CCOc1ccc(Cl)cc1)c1ccc(OC(=O)N(C)C)cc1 (stereo not drawn) [Test Compound 16, 4-[3-(4-Chlorophenoxy)-1-methylaminopropyl]phenyl dimethylcarbamate hydrochloride] | 493 | 210 |  |  |
| CNC(CCOc1cccc(Cl)c1)c1ccc(OC(=O)N(C)C)cc1 (stereo not drawn) [Test Compound 38, 4-[3-(3-chlorophenoxy)-1-methylaminopropyl]phenyl dimethylcarbamate hydrochloride] | 199 | 175 |  |  |
| 4-[3-(4-Chlorophenoxy)-1-dimethylaminopropyl]-2-methylphenyl dimethylcarbamate hydrochloride [Test Compound 185] | 170 |  |  |  |
| CN(C)C(=O)Oc1ccc(C(CCOc2ccc([N+](=O)[O-])cc2Cl)N(C)C)cc1 (stereo not drawn) [Test Compound 131, 4-[3-(2-Chloro-4-nitrophenoxy)-1-dimethylaminopropyl]phenyl dimethylcarbamate hydrochloride] | 129 | 57 |  |  |
| CN[C@@H](CCOc1ccc([N+](=O)[O-])cc1)c1cccc(OC(=O)N(C)C)c1 [Test Compound 125, (S) -3-[3-(4-Nitrophenoxy)-1-methylaminopropyl]phenyl dimathylcarbamate hydrochloride] | 841 |  | 19 |  |
| CNC(CCOc1ccc([N+](=O)[O-])cc1Cl)c1ccc(OC(=O)N(C)C)cc1 (stereo not drawn) [Test Compound 124, 4-[3-(2-Chloro-4-nitrophenoxy)-1-methylaminopropyl]phenyl dimethylcarbamate hydrochloride] | 110 | 64 |  |  |
| CN(C)C(=O)Oc1ccc2c(c1)C=CCN(C)[C@@H]2CCOc1ccc([N+](=O)[O-])cc1 [Test Compound 199, 2-Methyl-[[(1S)]] (1R)-[2-(4-nitrophenoxy)-ethyl]-2,3-dihydro-1H-benzo[c]azepin-7-yl dimethylcarbamate hydrochloride] | 6 |  |  |  |
| 4-[3-(4-Methylthiophenoxy)-1-dimethylaminopropyl]-2-methylphenyl dimethylcarbamate hydrochloride [Test Compound 186] | 62 |  |  |  |
| (R)-4-[3-(4-Methylthiophenoxy)-1-methylaminopropyl]phenyl dimethylcarbamate hydrochloride [Test Compound 177] | 120 |  |  |  |
| 2-Methyl-1-[2-(4-methylthiophenoxy)-ethyl]-2,3-dihydro-1H-benzo[c]azepin-7-yl dimethylcarbamate hydrochloride [Test Compound 196] | 18 |  |  |  |
| CN(C)C(=O)Oc1ccc2c(c1)C=CCN(C)[C@H]2CCOc1ccc([N+](=O)[O-])cc1 [Test Compound 200, 2-Methyl-(1S)-[2-(4-nitrophenoxy)-ethyl]-2,3-dihydro-1H-benzo[c]azepin-7-yl dimethylcarbamate hydrochloride] | 930 |  |  |  |
| (S)-4-[3-(4-Methylthiophenoxy)-1-methylaminopropyl]phenyl dimethylcarbamate hydrochloride [Test Compound 176] | 56 |  |  |  |
| CN(C)C(=O)Oc1ccc2c(c1)C=CCN(C)C2CCOc1ccc([N+](=O)[O-])cc1 (stereo not drawn) [Test Compound 192, 2-Methyl-1-[2-(4-nitrophenoxy)-ethyl]-2,3-dihydro-1H-benzo[c]azepin-7-yl dimethylcarbamate hydrochloride] | 63 |  |  |  |
| 2-Methyl-(1R)-[2-(4-methylthiophenoxy)-ethyl]-2,3-dihydro-1H-benzo[c]azepin-7-yl dimethylcarbamate hydrochloride [Test Compound 197] | 6 |  |  |  |
| Cc1cc(OCCC2c3cccc(OC(=O)N(C)C)c3C=CCN2C)ccc1Cl (stereo not drawn) [Test Compound 202, 2-Methyl-[2-(4-chloro-3-methylphenoxy)-ethyl]-2,3-dihydro-1H-benzo[c]azepin-6-yl dimethylcarbamate hydrochloride] |  |  |  | 900 |
| 4-[3-(4-Nitrophenoxy)-1-dimethylaminopropyl]-2-methylphenyl dimethylcarbamate hydrochloride [Test Compound 182] | 44 |  |  |  |
